# “Also recorded” adds a separate entry of the source. Where no end group is shown, it is not given here.
# How the values were obtained:
# NIH 3T3 fibroblasts = assay: 3H thymidine cell seeding / proliferation assay; format: cell-based, mouse; conditions: 2 wt. % hydrogel, 48 hours
# From the text: A quantitative assay that could be used to measure the rate of cell proliferation was developed. This allows gels having different material properties and constituent peptide sequences to be compared in terms of how well they support proliferation. Standard colorimetric assays such as the MTT and XTT have proven unsuitable for use with hydrogels of the invention. These assays rely on the ability of cells to metabolize tetrazolium derivatives to their corresponding colored formazan analogs. The analogs permeate into the hairpin hydrogel and become immobilized making subsequent quantification by UV spectroscopy unreliable. This problem has been addressed by utilizing ^3H thymidine-based assays in which thymidine is incorporated into proliferating cells undergoing DNA replication. […] The assay is two-fold. […] Second, a proliferation rate may be determined for a given material by seeding the cells (at optimal density) onto the material and determining the number of cells undergoing DNA replication at discrete time points up to 48 hours when confluency is reached. […] Unincorporated thymidine may be washed out (washes may be assayed until ^3H thymidine is no longer detected) and the cells sacrificed for scintillation counting. […] Therefore, for each new material, similar cell seeding experiments may be performed before rates of proliferation are determined. […]
# [1] = Temperature dependent CD: temperature at which folding and self-assembly is triggered (Tgel); format: physicochemical; conditions: pH 9 and low (20 mM) salt
# From the text: At low temperature MAX1 is unfolded (and unassembled). At high temperature MAX1 folds into beta-sheet (and consequently self-assembles into a hydrogel). […] The relative hydrophobicity is MAX1>MAX2>MAX3 due to the isostructural but less hydrophobic substitutions of threonine for valine at the underlined positions. The most hydrophobic folds at the lowest temperature while the least hydrophobic folds at the highest temperature. This is a direct manifestations of the molecular parameter manipulations described in FIG. 2. Also shown are the calculated free energy of transfer of each corresponding unfolded peptide having an overall +8 charge state from octanol into water at 25° C. MAX1, the most hydrophobic has the highest free energy of transfer equal to 7.60 kcal/mol. MAX2 has a calculated transfer free energy of 6.88 kcal/mol, while the least hydrophobic MAX3 has the lowest energy of transfer of 6.45 kcal/mol.
# This allows the characteristics of the hydrogels of the invention to be varied by adjusting these parameters. […] It is well known that water is better able to solvate hydrophobic groups at low temperatures. This phenomenon has been used to describe the cold denaturation of proteins where some proteins unfold at low temperatures, exposing their hydrophobic interiors to aqueous solvent. A 150 μM aqueous solution of MAX1 unfolds when cooled below room temperature. The CD spectrum at 5° C. is consistent with random coil conformation, FIG. 9A. However, warming the solution to 40° C. results in a spectra consistent with β-sheet structure. […] In fact, previous studies involving the pH induced folding and self-assembly of MAX1 were performed at 20° C. At this temperature, folding and self-assembly are slow enough to be conveniently monitored. At higher temperatures, folding and self: assembly leading to hydrogelation is fast (instantaneous to seconds depending on concentration). If the formation of hydrophobic interactions affects the folding and self-assembly process, then altering the hydrophobic content of MAX1 should affect the temperature at which folding is triggered. […] MAX2 is identical to MAX1 except that one valine residue has been replaced with the isostructural, but less hydrophobic residue, threonine. In MAX3, two valines are replaced with threonine residues. The resulting peptides vary in their hydrophobicity as evident by comparing calculated free energies of transfer from octanol into water, FIG. 9. […] Thus, the formation of hydrophobic contacts influences folding and self-assembly. […] Thus, the characteristics of the hydrogels of the invention can be varied by adjusting the amino acid residues of the peptides used to form the hydrogels to increase or decrease the hydrophobicity of the amino acid residues used.
# There are reports of large polymers that are thermally responsive. The present invention provides the first system that employs temperature triggered folding to induce self-assembly. […] Heating the solution to 80° C. results in a spectra consistent with β-sheet structure. […] The temperatures used in both CD and rheology bracket the temperature (Tgel=60° C., FIG. 9) at which folding and consequent self-assembly is triggered. […] For example, free flowing peptide solutions could be prepared at room temperature and administered in vivo where the temperature of the body could induce gelation. […]
# [2] = Oscillatory rheology of peptide hydrogels (storage and loss moduli); format: physicochemical; conditions: 2 wt %, pH 9, 20° C, 6 Hz, 1% strain
sequence,measurement,setting,value
VKVKVKVK V^DPPT KVKVKVKV-NH2 (not fully specified (C-terminus)) [MAX1],optimal cell seeding density for 2 day proliferation assays,NIH 3T3 fibroblasts,"40,000 fibroblasts"
same,cell proliferation on hydrogel versus tissue culture polystyrene control,NIH 3T3 fibroblasts; 3H thymidine counts,more cells have grown on the hydrogel than on the control surface; also recorded: higher than the control
same,transition temperature from random coil to folded β-sheet structure,[1],around 25 °C
same,gel storage modulus after 30 minutes,[2],~600 Pa

# From US8221773B2, “Hydrogels and uses thereof” (University of Delaware, priority 2004, dated 2012)
